pEC50, pIC50: −log10 of the molar value.
Target: T1, Zinc finger protein GLI1 (Homo sapiens, UniProt P08151)
T1 sequence (P08151 whole entry): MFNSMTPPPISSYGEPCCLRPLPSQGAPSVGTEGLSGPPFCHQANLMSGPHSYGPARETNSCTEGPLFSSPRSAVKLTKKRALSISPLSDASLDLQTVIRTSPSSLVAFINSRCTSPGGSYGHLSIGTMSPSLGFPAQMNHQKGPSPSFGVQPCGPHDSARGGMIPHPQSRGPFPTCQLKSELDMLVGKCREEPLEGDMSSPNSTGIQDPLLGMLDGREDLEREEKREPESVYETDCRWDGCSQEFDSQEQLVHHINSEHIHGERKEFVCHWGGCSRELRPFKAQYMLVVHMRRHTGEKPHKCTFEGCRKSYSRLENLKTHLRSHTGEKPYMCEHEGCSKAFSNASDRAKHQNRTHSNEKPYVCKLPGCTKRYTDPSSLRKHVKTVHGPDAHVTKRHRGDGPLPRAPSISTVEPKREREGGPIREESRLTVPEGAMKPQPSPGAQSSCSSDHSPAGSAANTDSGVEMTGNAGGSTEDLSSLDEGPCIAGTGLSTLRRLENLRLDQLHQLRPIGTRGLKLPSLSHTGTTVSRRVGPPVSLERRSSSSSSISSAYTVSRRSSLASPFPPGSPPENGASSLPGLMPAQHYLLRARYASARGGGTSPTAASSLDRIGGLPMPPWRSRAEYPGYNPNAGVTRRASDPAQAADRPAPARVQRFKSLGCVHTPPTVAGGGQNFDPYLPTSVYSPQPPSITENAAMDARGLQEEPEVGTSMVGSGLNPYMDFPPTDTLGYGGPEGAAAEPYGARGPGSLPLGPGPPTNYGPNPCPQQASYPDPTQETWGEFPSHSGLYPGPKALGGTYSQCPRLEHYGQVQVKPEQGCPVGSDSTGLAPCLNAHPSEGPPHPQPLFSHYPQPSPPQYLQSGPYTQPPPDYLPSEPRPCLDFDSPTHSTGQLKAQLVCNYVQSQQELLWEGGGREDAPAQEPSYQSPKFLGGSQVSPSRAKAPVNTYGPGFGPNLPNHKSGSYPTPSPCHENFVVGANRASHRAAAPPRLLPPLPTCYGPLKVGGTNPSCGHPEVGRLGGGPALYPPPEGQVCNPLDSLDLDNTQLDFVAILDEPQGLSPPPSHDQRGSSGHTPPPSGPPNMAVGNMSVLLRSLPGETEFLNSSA
Experiment: Inhibition of Gli1-mediated transcription expressed in human PANC1 cells

Row | SMILES | pIC50
1 | O=C1NCc2c1c1c3ccccc3[nH]c1c1[nH]c3ccccc3c21 | 5.74
2 | C[C@]12C(=O)C=CCC1=CC[C@@H]1[C@@H]2CC[C@]2(O)C(=O)O[C@@]3(C)[C@H]4C[C@]5(C)[C@@H](CO[C@@]16O[C@@]32[C@H]5C6=O)C(=O)O4 [NSC-287088] | 6.21
3 | C[C@@]12C[C@H]3OC(=O)[C@@H]1CO[C@]14O[C@]5([C@H]2C1=O)[C@@](O)(CC[C@H]1[C@H]4C[C@H]2O[C@]24CC=CC(=O)[C@]14C)C(=O)O[C@@]35C [PHYSALIN F] | 6.18
4 | C/C1=C\CC(C)(C)/C=C/C(=O)/C(C)=C/CC1 [Zerumbone] | 5.15

Target: Sonic hedgehog protein (Homo sapiens, UniProt Q15465)
Experiment: Inhibition of lipid-modified (octylated) form of SHH expressed in mouse s12 cells by luciferase reporter gene assay

Chain of Sonic hedgehog protein (Homo sapiens, UniProt Q15465) (Q15465 24-197 limits assumed): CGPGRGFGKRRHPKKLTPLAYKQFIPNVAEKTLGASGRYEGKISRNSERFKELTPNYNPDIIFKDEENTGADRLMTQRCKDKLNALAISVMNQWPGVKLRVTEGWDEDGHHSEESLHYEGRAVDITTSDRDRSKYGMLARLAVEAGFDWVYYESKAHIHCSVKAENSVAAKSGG

Row | SMILES | pIC50
5 | CC1=C2C(=O)[C@H]3[C@@H](CC=C4C[C@@H](O)CC[C@@]43C)[C@@H]2CC[C@]12O[C@@H]1C[C@H](C)CN[C@H]1[C@H]2C [5'-hydroxy-2',3,6,15'-tetramethyl-(1'S,2'R,2'R,3R,3aS,5'S,6S,7aR,10'S,11'S)-spiro[perhydrofuro[3,2-b]pyridine-2,14'-tetracyclo[8.7.0.02,7.011,16]heptadeca-7',15'-diene]-17'-one] | 6.30
6 | COc1cccc(CN(C(=O)CC(C)(C)C)[C@H]2C[C@@H](C(=O)N3CCNCC3)N(Cc3ccc4c(c3)OCO4)C2)c1 [N-((3S,5S)-1-(benzo[d][1,3]dioxol-5-ylmethyl)-5-(piperazine-1-carbonyl)pyrrolidin-3-yl)-N-(3-methoxybenzyl)-3,3-dimethylbutanamide] | 7.00

Target: not listed separately
Experiment: Inhibition of SHH-mediated mouse C3H10T1/2 cells differentiation into osteoblasts by alkaline phosphatase assay

Row | SMILES | pIC50
7 | Cc1cccc(C)c1NC(=O)c1ccc(Nc2nc(C3CC3)c3ccccc3n2)cc1 [4-(4-cyclopropylquinazolin-2-ylamino)-N-(2,6-dimethylphenyl)benzamide] | 8.55
8 | Cc1nn(-c2ccccc2)c(C)c1C=NN1CCN(Cc2ccccc2)CC1 [4-benzyl-N-((3,5-dimethyl-1-phenyl-1H-pyrazol-4-yl)methylene)piperazin-1-amine] | > 7.70
9 | COc1ccc(-c2cc(C3CC3)nc(SCC(C)=O)c2C#N)cc1 [6-cyclopropyl-4-(4-methoxyphenyl)-2-(2-oxopropylthio)nicotinonitrile] | > 7.00
10 | CCCCCc1ccc(-c2ccc(/C=C/C(=O)N3CCCCC3)cc2)nc1 [(E)-3-(4-(5-pentylpyridin-2-yl)phenyl)-1-(piperidin-1-yl)prop-2-en-1-one] | 6.70
11 | CN1CCCc2ccc(NC(=O)c3ccc(Nc4nc(-c5ccccc5)c5ccccc5n4)cc3)cc21 [N-(1-methyl-1,2,3,4-tetrahydroquinolin-7-yl)-4-(4-phenylquinazolin-2-ylamino)benzamide] | 8.24
12 | Cc1cccc(C)c1NC(=O)c1ccc(Nc2nc(-c3ccccc3)c3cccnc3n2)cc1 [N-(2,6-dimethylphenyl)-4-(4-phenylpyrido[2,3-d]pyrimidin-2-ylamino)benzamide] | 8.44
13 | CCOc1cc(C(=O)Nc2ccc(Cl)c(-c3nc4ccccc4[nH]3)c2)cc(OCC)c1OCC [N-(3-(1H-Benzo[d]imidazol-2-yl)-4-chlorophenyl)-3,4,5-triethoxybenzamide] | 7.52

Target: Zinc finger protein GLI2 (Homo sapiens, UniProt P10070)
Experiment: Inhibition of Gli2-mediated transcription expressed in human PANC1 cells

Chain of Zinc finger protein GLI2 (P10070 whole entry): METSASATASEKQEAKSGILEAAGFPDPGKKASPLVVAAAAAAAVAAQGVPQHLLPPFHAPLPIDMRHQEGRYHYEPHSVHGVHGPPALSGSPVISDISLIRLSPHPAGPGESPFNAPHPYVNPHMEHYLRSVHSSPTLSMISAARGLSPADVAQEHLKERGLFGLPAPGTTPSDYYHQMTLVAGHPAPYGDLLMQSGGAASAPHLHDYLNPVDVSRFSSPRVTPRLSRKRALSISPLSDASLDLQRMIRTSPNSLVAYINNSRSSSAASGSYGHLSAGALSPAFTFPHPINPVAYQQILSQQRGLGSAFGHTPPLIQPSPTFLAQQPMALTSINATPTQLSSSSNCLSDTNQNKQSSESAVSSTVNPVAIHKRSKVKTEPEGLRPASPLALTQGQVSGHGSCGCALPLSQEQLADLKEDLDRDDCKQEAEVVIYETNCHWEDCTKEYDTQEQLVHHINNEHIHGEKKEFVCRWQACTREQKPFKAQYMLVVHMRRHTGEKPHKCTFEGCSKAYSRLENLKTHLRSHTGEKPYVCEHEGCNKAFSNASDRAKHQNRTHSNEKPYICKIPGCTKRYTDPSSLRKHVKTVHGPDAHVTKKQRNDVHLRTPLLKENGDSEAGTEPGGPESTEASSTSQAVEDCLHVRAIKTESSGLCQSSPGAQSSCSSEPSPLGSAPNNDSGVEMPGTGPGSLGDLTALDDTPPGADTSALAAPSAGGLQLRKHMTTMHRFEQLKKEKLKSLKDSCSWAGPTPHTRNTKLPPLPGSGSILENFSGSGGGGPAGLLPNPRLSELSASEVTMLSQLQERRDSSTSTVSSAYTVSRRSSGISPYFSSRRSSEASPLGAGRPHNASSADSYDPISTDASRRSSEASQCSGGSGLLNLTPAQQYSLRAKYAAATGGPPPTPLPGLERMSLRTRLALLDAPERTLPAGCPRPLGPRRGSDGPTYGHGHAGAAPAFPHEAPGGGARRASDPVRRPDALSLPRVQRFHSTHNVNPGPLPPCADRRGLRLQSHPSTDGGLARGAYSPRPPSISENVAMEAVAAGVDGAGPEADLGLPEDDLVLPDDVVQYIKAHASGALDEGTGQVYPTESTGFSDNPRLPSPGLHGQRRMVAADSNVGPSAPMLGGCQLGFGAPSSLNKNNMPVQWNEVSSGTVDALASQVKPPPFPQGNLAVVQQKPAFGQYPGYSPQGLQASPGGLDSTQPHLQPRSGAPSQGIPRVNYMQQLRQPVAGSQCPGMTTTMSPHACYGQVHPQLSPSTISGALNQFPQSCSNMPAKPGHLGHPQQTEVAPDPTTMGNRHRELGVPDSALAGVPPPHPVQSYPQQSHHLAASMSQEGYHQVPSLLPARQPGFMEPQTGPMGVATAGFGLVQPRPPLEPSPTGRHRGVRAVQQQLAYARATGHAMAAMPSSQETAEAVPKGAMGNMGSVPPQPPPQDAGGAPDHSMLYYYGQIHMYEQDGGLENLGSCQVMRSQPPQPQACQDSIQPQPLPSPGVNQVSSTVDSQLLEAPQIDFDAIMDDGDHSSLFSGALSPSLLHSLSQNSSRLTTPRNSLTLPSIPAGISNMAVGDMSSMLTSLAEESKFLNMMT

Row | SMILES | pIC50
14 | O=C1NCc2c1c1c3ccccc3[nH]c1c1[nH]c3ccccc3c21 | 5.57
15 | C/C1=C\CC(C)(C)/C=C/C(=O)/C(C)=C/CC1 [Zerumbone] | 6.04

Target: Sonic hedgehog protein (Mus musculus, UniProt Q62226)
Experiment: Inhibition of SHH in mouse Shh Light2 cells by GLI-responsive firefly luciferase reporter gene assay

Chain of Sonic hedgehog protein (Mus musculus, UniProt Q62226) (Q62226 25-198 limits assumed): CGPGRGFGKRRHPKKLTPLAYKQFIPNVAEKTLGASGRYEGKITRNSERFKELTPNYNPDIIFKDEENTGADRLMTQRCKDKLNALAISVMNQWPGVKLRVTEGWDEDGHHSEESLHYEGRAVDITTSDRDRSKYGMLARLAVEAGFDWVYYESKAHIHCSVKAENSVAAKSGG

Row | SMILES | pEC50 | pIC50
16 | CC1=C2C[C@H]3[C@@H](CC=C4C[C@@H](O)CC[C@@]43C)[C@@H]2CC[C@]12O[C@@H]1C[C@H](C)CN[C@H]1[C@H]2C | 6.30 | 
17 | CC(=O)c1cccc(Nc2nc(-c3ccccc3)cs2)c1 [1-(3-(4-phenylthiazol-2-ylamino)phenyl)ethanone] |  | 7.00
18 | CN(C)c1ccccc1CN1CCCN(Cc2ccccc2N(C)C)C1c1ccncc1 [2-((3-(2-(dimethylamino)benzyl)-2-(pyridin-4-yl)-tetrahydropyrimidin-1(2H)-yl)methyl)-N,N-dimethylbenzenamine] |  | 5.30
19 | CS(=O)(=O)c1ccc(C(=O)Nc2ccc(Cl)c(-c3ccccn3)c2)c(Cl)c1 [2-chloro-N-(4-chloro-3-(pyridin-2-yl)phenyl)-4-(methylsulfonyl)benzamide] |  | 8.52
20 | c1cc(-c2sc(-c3ccncc3)c(-c3ccncc3)c2-c2ccncc2)ccn1 [4-(3,4,5-tri(pyridin-4-yl)thiophen-2-yl)pyridine] |  | 5.30
21 | Cc1nc2ccccn2c1-c1csc(NC(=O)c2ccc3ccccc3c2)n1 [N-(4-(2-methylimidazo[1,2-a]pyridin-3-yl)thiazol-2-yl)-2-naphthamide] |  | 7.00
22 | COc1cc(OC)cc(C(=O)Nc2ccc(Cl)c(-c3nc4ccc(N(C)C)cc4[nH]3)c2)c1 [N-(4-chloro-3-(5-(dimethylamino)-1H-benzo[d]imidazol-2-yl)phenyl)-3,5-dimethoxybenzamide] | 7.40 | 
23 | CCOc1ccc(Nc2nc(-c3c(C)nc4ccccn34)cs2)cc1 [N-(4-ethoxyphenyl)-4-(2-methylimidazo[1,2-a]pyridin-3-yl)thiazol-2-amine] |  | 7.52
24 | COc1ccc(Cl)cc1Nc1nc(-c2cccnc2)cs1 [N-(5-chloro-2-methoxyphenyl)-4-(pyridin-3-yl)thiazol-2-amine] |  | 7.00
